Reference: patent US20090227620A1, “ANTI-INFLAMMATORY COMPOUNDS” (priority 2005, published 2009)
pIC50: −log10 of the molar value.

Assays:
[1] = tested on: irritant contact dermatitis elicited with tetradecanoylphorbol-13-acetate (TPA) on ears of mice; assay: Anti-Inflammatory Test System (TPA-elicited irritant contact dermatitis, mouse ear); assay type: in vivo, strain NMRI; settings: for anti-inflammatory activity (in words): mouse, in vivo; for inhibition in % (auricular weight, inflammatory swelling): topical 10 μl, 30 min before TPA, read 6 hours after
Protocol: The test sites on the inner surface of the right external ears of mice, e.g. strain NMRI, (8 per group) are treated with 10 μl of the dissolved test compound or with the vehicle (a 4:4:2 mixture of ethanol/acetone/dimethylacetamide) alone. The test compounds are applied at concentrations shown in the TEST RESULT TABLE. Thirty minutes after the treatment irritant contact dermatitis is elicited at the treated auricular sites with 10 μl 0.005% tetradecanoylphorbol-13-acetate (TPA). Skin inflammation is assessed 6 hours after the elicitation by determination of the auricular weights, as a measure of inflammatory swelling. The animals are killed and both ears are cut off and weighed. Inhibitory activity of test compounds is calculated from differences in right and left ears (internal controls) in mice treated with the test compounds compared with animals treated with the vehicle only. Results obtained are as set out in TEST RESULT TABLE below: In the TEST RESULT TABLE the concentrations of the compounds (in bold) used are indicated in micromol/litre. The values given in the TEST RESULT TABLE (in regular letters) are the inhibition in % determined according to the ANTI-INFLAMMATORY TEST SYSTEM used.

[2] = biological target: T1, purified human steroid sulfatase (Homo sapiens, UniProt P08842); assay: Assay of Human Steroid Sulfatase (4-methylumbelliferyl sulfate cleavage, fluorescence); settings: reference compound, determined in parallel to test compounds
T1 sequence (P08842 22-583): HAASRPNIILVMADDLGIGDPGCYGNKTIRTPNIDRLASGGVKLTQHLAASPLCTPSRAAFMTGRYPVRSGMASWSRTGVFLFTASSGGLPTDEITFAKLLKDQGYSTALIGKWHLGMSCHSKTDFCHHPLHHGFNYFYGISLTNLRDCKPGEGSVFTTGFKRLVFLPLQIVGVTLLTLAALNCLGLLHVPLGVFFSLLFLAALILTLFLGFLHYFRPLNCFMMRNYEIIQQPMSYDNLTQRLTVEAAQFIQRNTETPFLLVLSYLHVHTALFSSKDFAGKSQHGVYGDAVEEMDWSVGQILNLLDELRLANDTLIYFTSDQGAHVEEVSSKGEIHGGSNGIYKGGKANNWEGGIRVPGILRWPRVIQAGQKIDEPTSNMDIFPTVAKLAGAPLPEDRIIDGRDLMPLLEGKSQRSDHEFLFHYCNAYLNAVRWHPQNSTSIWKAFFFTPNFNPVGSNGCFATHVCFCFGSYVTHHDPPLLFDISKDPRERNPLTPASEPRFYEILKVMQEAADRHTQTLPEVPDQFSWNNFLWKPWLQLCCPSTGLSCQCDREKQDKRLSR
Protocol: Human placenta is obtained freshly after delivery and stripped of membranes and connective tissues. For storage, the material is frozen at −70° C. After thawing, all further steps are carried out at 4° C., while pH values are adjusted at 20° C. 400 g of the tissue is homogenized in 1.2 l of buffer A (50 mM Tris-HCl, pH 7.4, 0.25 M sucrose). The homogenate obtained is centrifuged at 10,000×g for 45 minutes. The supernatant is set aside and the pellet obtained is re-homogenized in 500 ml of buffer A. After centrifugation, the two supernatants obtained are combined and subjected to ultracentrifugation (100,000×g, 1 hour). The pellet obtained is resuspended in buffer A and centrifugation is repeated. The pellet obtained is suspended in 50 ml of 50 mM Tris-HCl, pH 7.4 and stored at −20° C. until further work-up. After thawing, microsomes are collected by ultracentrifugation (as described above) and are suspended in 50 ml of buffer B (10 mM Tris-HCl, pH 7.0, 1 mM EDTA, 2 mM 2-mercaptoethanol, 1% Triton X-100, 0.1% aprotinin). After 1 hour on ice with gentle agitation, the suspension is centrifuged (100,000×g, 1 hour). The supernatant containing the enzyme activity is collected and the pH is adjusted to 8.0 with 1 M Tris. […]
Plates are incubated at 37° C. for 1 hour. […] Fluorescence intensity is determined in a Titertek Fluoroskan II instrument with λex=355 nm and λem=460 nm. […]

[3] = first value, column head printed 0 micromol/litre (alignment unclear)
[4] = second value, column head printed 0.1 micromol/litre (alignment unclear)
[5] = third value, column head printed 0.3 micromol/litre (alignment unclear)

Row | Compound | anti-inflammatory activity (in words) [1] | inhibition in % (auricular weight, inflammatory swelling) [1, 3] | inhibition in % (auricular weight, inflammatory swelling) [1, 4] | inhibition in % (auricular weight, inflammatory swelling) [1, 5] | melting point | pIC50 [2]
1 | CC(C)(C)OC(=O)N1CC2CCCCC(C1)C2C(=O)NS(=O)(=O)c1cc(C(F)(F)F)cc(C(F)(F)F)c1 (stereo not shown) [Example 217, 10-(3,5-bis-trifluoromethyl-benzenesulfonylaminocarbonyl)-8-aza-bicyclo[4.3.1]decane-8-carboxylic acid tert-butyl ester] | anti-inflammatory activity | 20% | 36% | 45% | – | –
2 | CC(C)(C)OC(=O)N1CC2CCCCC(C1)C2C(=O)NS(=O)(=O)c1cc(C(F)(F)F)cc(C(F)(F)F)c1 (stereo not shown) [Example 218] | anti-inflammatory activity | 20% | 36% | 45% | – | –
3 | NC(=O)c1ccc(C(F)(F)F)cc1N1CCC(CS(=O)(=O)NC(=O)c2cc(C(F)(F)F)cc(C(F)(F)F)c2)CC1 [Example 379] | – | – | – | – | 268 to 273 °C | –
4 | C[C@]12CC[C@@H]3c4ccc(OS(N)(=O)=O)cc4CC[C@H]3[C@@H]1CCC2=O [estrone sulfamate, estrone 3-O-sulfamate] | – | – | – | – | – | ~7.22
